Test results published in US20260098025A1, “DIMERIC COMPOUNDS AS INHIBITORS OF GLYCOGEN SYNTHASE 1 (GYS1) AND METHODS OF USE THEREOF” (Maze Therapeutics, Inc., priority 2022, published 2026).

What follows are compounds tested against T1, recombinant hGYS1/GN1 protein (Homo sapiens, UniProt P13807) (assay: GYS1 coupled enzyme assay (PK/LDH, NADH absorbance at 340 nm)). Details: geometric mean of at least 2 assay runs on separate days; hGYS1/GN1 50 nM, Glucose-6-Phosphate 1 mM, UDP-Glucose 0.8 mM.
T1 sequence (P13807 1-737): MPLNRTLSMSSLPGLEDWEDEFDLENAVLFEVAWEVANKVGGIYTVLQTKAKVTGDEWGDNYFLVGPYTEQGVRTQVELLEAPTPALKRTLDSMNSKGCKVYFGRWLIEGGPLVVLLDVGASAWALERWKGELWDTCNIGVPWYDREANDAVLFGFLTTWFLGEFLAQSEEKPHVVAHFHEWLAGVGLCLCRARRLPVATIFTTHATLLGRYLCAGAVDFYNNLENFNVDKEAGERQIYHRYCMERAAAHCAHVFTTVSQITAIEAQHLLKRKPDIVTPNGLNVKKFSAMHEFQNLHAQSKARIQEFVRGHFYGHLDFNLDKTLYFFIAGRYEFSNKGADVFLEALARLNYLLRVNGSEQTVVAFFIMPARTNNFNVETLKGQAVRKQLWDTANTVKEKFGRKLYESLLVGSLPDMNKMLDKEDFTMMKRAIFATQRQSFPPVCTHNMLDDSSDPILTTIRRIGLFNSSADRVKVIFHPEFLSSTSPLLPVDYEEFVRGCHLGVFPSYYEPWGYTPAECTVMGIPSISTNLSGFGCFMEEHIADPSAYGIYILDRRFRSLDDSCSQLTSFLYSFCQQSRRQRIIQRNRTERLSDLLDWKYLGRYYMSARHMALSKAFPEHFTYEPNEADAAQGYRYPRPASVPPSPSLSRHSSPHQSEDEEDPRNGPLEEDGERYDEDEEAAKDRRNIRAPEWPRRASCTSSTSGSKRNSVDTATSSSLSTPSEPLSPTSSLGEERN
T1 sequence (P46976 1-350 partner): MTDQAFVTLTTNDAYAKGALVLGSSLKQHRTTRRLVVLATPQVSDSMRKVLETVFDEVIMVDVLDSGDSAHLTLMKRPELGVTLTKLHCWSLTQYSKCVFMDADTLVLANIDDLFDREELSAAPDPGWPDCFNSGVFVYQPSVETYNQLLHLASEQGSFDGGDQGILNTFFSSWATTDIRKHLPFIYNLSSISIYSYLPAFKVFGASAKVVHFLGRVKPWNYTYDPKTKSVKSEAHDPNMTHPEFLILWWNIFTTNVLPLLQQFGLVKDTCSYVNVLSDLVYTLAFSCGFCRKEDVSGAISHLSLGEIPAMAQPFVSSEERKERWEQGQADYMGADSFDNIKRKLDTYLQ
Assay type: biochemical
From the text: The GYS1 coupled enzyme assay is a kinetic biochemical assay that indirectly quantifies the rate of glycogen synthesis by coupling the conversion of GYS1 substrate UDP-glucose into UDP with downstream enzymatic reactions. UDP is released from UDP-glucose as glucose monomers are linked into the growing glycogen strand by GYS1. The coupled assay then proceeds with pyruvate kinase utilizing UDP and phospho(enol)pyruvate (PEP) to form pyruvate. Lactate dehydrogenase then converts pyruvate and NADH into lactate and NAD+. Oxidation of NADH to NAD+ can be measured continuously with a plate reader by quantifying the decrease in NADH absorbance at 340 nm over time.
Compounds that inhibit the hGYS1 enzyme and, subsequently, the downstream conversion of NADH to NAD+, were tested using assay ready plates (black, clear bottom 384 well plates) in a final DMSO reaction volume of 2.5% DMSO. The Assay Buffer contained 50 mM Tris pH 7.5, 2 mM MgCl2, and 100 mM KCl. Fresh stocks of BSA at a final concentration of 0.02% and TCEP at 1 mM were added before splitting buffer into hGYS1 buffer and substrate buffer. To the hGYS1 buffer, rabbit liver glycogen was added at a final concentration of 0.2% glycogen. Glucose-6-Phosphate was added at 1 mM, recombinant hGYS1/GN1 protein was added at 50 nM to the substrate buffer, phosphoenolpyruvate (PEP) was added at 2 mM, UDP-Glucose was added at 0.8 mM, NADH) was added at 0.6 mM, and Pyruvate Kinase/Lactate Dehydrogenase was added at 20 units/mL. The reaction was initiated by mixing hGYS1 buffer and substrate buffer at a 1:1 ratio. Both buffers were plated using a liquid dispensing device with hGYS1 buffer plated first followed by the substrate buffer. Plates were spun briefly to eliminate air bubbles and are immediately read in continuous mode at an absorbance of 340 nm, for 10 time points in one-minute increments, for a total of 10 minutes. The slope from these 10 time points was normalized to the positive and negative control wells. The duplicate % inhibition values are then averaged and fit to a Hill equation for dose response according to the Levenberg-Marquardt algorithm with the Hill equation maximum set to 100 and the minimum set to 0.
The results are shown in Table 2 below, which reports the IC50 of each compound. Unless otherwise specified, IC50 values are reported as the geometric mean of at least 2 assay runs on separate days. Each run represents the average of a technical replicate, where each compound was assayed twice in the same plate. As shown in the table below, the compounds of the present invention are potent inhibitors of human GYS1. A superscript “#” symbol in Table 2 indicates results from a single assay run.
Note that, in Table 2, the compounds are referred to by the corresponding Compound No. in Table 1, which is also referred to in the synthetic examples.

SMILES	IC50 [µM]
O=C(N[C@@H](c1ccccc1)c1ccc(C2CC2)c(F)n1)[C@@H]1C[C@@H](F)CN1C(=O)Cn1cc(OCCOCCOc2cn(CC(=O)N3C[C@H](F)C[C@H]3C(=O)N[C@@H](c3ccccc3)c3ccc(C4CC4)c(F)n3)nn2)nn1 [Compound 1, (2S,2′S,4R,4′R)-1,1′-(2,2′-(((oxybis(ethane-2,1-diyl))bis(oxy))bis(1H-1,2,3-triazole-4,1-diyl))bis(acetyl))bis(N-((S)-(5-cyclopropyl-6-fluoropyridin-2-yl)(phenyl)methyl)-4-fluoropyrrolidine-2-carboxamide)]	0.0108
O=C(N[C@@H](c1ccccc1)c1ccc(C2CC2)c(F)n1)[C@@H]1C[C@@H](F)CN1C(=O)COCCOCCOCCOCCOCCOCCOCC(=O)N1C[C@H](F)C[C@H]1C(=O)N[C@@H](c1ccccc1)c1ccc(C2CC2)c(F)n1 [Compound 2, (2S,2′S,4R,4′R)-1,1′-(3,6,9,12,15,18,21-heptaoxatricosanedioyl)bis(N-((S)-(5-cyclopropyl-6-fluoropyridin-2-yl)(phenyl)methyl)-4-fluoropyrrolidine-2-carboxamide)]	0.0056
O=C(COCCOCCOCCOCCOCCOCCOCCOCCOCCOCCOCCOCC(=O)N[C@@H](c1ccccc1)c1ccc(C2CC2)c(F)n1)N[C@@H](c1ccccc1)c1ccc(C2CC2)c(F)n1 [Compound 3, N^1,N^38-bis((S)-(5-cyclopropyl-6-fluoropyridin-2-yl)(phenyl)methyl)-3,6,9,12,15,18,21,24,27,30,33,36-dodecaoxaoctatriacontanediamide]	5.71
O=C(N[C@@H](c1ccccc1)c1ccc(C2CC2)c(F)n1)[C@@H]1C[C@@H](F)CN1C(=O)COCCOCC(=O)N1C[C@H](F)C[C@H]1C(=O)N[C@@H](c1ccccc1)c1ccc(C2CC2)c(F)n1 [Compound 4, (2S,2′S,4R,4′R)-1,1′-(2,2′-(ethane-1,2-diylbis(oxy))bis(acetyl))bis(N-((S)-(5-cyclopropyl-6-fluoropyridin-2-yl)(phenyl)methyl)-4-fluoropyrrolidine-2-carboxamide)]	8.91
O=C(N[C@@H](c1ccccc1)c1ccc(C2CC2)c(F)n1)[C@@H]1C[C@@H](F)CN1C(=O)COCCOCCOCCOCCOCCOCC(=O)N1C[C@H](F)C[C@H]1C(=O)N[C@@H](c1ccccc1)c1ccc(C2CC2)c(F)n1 [Compound 5, (2S,2′S,4R,4′R)-1,1′-(3,6,9,12,15,18-hexaoxaicosanedioyl)bis(N-((S)-(5-cyclopropyl-6-fluoropyridin-2-yl)(phenyl)methyl)-4-fluoropyrrolidine-2-carboxamide)]	0.0054
O=C(COCCOCCOCCOCCOCCOCCOCCOCCOCCOCCOCC(=O)N[C@@H](c1ccccc1)c1ccc(C2CC2)c(F)n1)N[C@@H](c1ccccc1)c1ccc(C2CC2)c(F)n1 [Compound 6, N^1,N^35-bis((S)-(5-cyclopropyl-6-fluoropyridin-2-yl)(phenyl)methyl)-3,6,9,12,15,18,21,24,27,30,33-undecaoxapentatriacontanediamide]	7.5
O=C(N[C@@H](c1ccccc1)c1ccc(C2CC2)c(F)n1)[C@@H]1C[C@@H](F)CN1C(=O)Cn1cc(COCCOCc2cn(CC(=O)N3C[C@H](F)C[C@H]3C(=O)N[C@@H](c3ccccc3)c3ccc(C4CC4)c(F)n3)nn2)nn1 [Compound 7, (2S,2′S,4R,4′R)-1,1′-(2,2′-(((ethane-1,2-diylbis(oxy))bis(methylene))bis(1H-1,2,3-triazole-4,1-diyl))bis(acetyl))bis(N-((S)-(5-cyclopropyl-6-fluoropyridin-2-yl)(phenyl)methyl)-4-fluoropyrrolidine-2-carboxamide)]	0.0112
O=C(N[C@@H](c1ccccc1)c1ccc(C2CC2)c(F)n1)[C@@H]1C[C@@H](F)CN1C(=O)Cn1cc(COCCOc2cn(CC(=O)N3C[C@H](F)C[C@H]3C(=O)N[C@@H](c3ccccc3)c3ccc(C4CC4)c(F)n3)nn2)nn1 [Compound 8, (2S,4R)-N-((S)-(5-cyclopropyl-6-fluoropyridin-2-yl)(phenyl)methyl)-1-(2-(4-(2-((1-(2-((2S,4R)-2-(((S)-(5-cyclopropyl-6-fluoropyridin-2-yl)(phenyl)methyl)carbamoyl)-4-fluoropyrrolidin-1-yl)-2-oxoethyl)-1H-1,2,3-triazol-4-yl)methoxy)ethoxy)-1H-1,2,3-triazol-1-yl)acetyl)-4-fluoropyrrolidine-2-carboxamide]	0.0052
O=C(N[C@@H](c1ccccc1)c1ccc(C2CC2)c(F)n1)[C@@H]1C[C@@H](F)CN1C(=O)Cn1cc(OCCOc2cn(CC(=O)N3C[C@H](F)C[C@H]3C(=O)N[C@@H](c3ccccc3)c3ccc(C4CC4)c(F)n3)nn2)nn1 [Compound 9, (2S,2′S,4R,4′R)-1,1′-(2,2′-((ethane-1,2-diylbis(oxy))bis(1H-1,2,3-triazole-4,1-diyl))bis(acetyl))bis(N-((S)-(5-cyclopropyl-6-fluoropyridin-2-yl)(phenyl)methyl)-4-fluoropyrrolidine-2-carboxamide)]	0.0201
O=C(N[C@@H](c1ccccc1)c1ccc(C2CC2)c(F)n1)[C@@H]1C[C@@H](F)CN1C(=O)COCCOCCOCCOCCOCC(=O)N1C[C@H](F)C[C@H]1C(=O)N[C@@H](c1ccccc1)c1ccc(C2CC2)c(F)n1 [Compound 10, (2S,2′S,4R,4′R)-1,1′-(3,6,9,12,15-pentaoxaheptadecanedioyl)bis(N-((S)-(5-cyclopropyl-6-fluoropyridin-2-yl)(phenyl)methyl)-4-fluoropyrrolidine-2-carboxamide)]	0.0144
O=C(N[C@@H](c1ccccc1)c1ccc(C2CC2)c(F)n1)[C@@H]1C[C@@H](F)CN1C(=O)COCCOCCOCCOCC(=O)N1C[C@H](F)C[C@H]1C(=O)N[C@@H](c1ccccc1)c1ccc(C2CC2)c(F)n1 [Compound 11, (2S,2′S,4R,4′R)-1,1′-(3,6,9,12-tetraoxatetradecanedioyl)bis(N-((S)-(5-cyclopropyl-6-fluoropyridin-2-yl)(phenyl)methyl)-4-fluoropyrrolidine-2-carboxamide)]	0.0146
O=C(N[C@@H](c1ccccc1)c1ccc(C2CC2)c(F)n1)[C@@H]1C[C@@H](F)CN1C(=O)COCCOCCOCC(=O)N1C[C@H](F)C[C@H]1C(=O)N[C@@H](c1ccccc1)c1ccc(C2CC2)c(F)n1 [Compound 12, (2S,2′S,4R,4′R)-1,1′-(2,2′-((oxybis(ethane-2,1-diyl))bis(oxy))bis(acetyl))bis(N-((S)-(5-cyclopropyl-6-fluoropyridin-2-yl)(phenyl)methyl)-4-fluoropyrrolidine-2-carboxamide)]	0.0821
